Source: patent US20100003217A1, “Compounds and Pharmaceutical Compositions for the Treatment of Viral Infections” (priority 2008, published 2010)

Tested on: CYP3A4
Experiment: Effect of CYP3A4 inhibitors (ketoconazole, ritonavir) on metabolic stability in monkey liver microsomes
Type: in vitro ADME
Conditions: monkey microsomes 0.5 mg/mL, 30 min, 10 μM, NADPH
Protocol: Incubations were conducted in a final volume of 0.1 mL per incubation time point. […] Final solvent (DMSO or methanol) concentration was maintained at 0.2%. Reactions were initiated by the addition of an NADPH regenerating system (1.3 mM NADP^+, 3.3 mM glucose-6-phosphate, 0.4 U/ml glucose-6-phosphate dehydrogenase, and 3.3 mM MgCl2, final concentrations). Incubations with no inhibitor served as control. Reactions were terminated at 30 min (monkey) or 60 min (rat and human) by the addition of 0.2 mL of stop solution (acetonitrile). The samples were vortex-mixed for 30 sec and then centrifuged at 10,000×g for 10 min. The supernatant was dried using a Labconco CentriVap concentrator and the dry residue reconstituted in water, transferred to an HPLC glass vial and analyzed by HPLC-UV method 1 (described above).
Because Compound 1 is rapidly metabolized in monkey liver microsomes, incubation conditions were adjusted by reducing protein content to 0.5 mg/mL and incubation time to 30 min. Incubation conditions for rat and human were unchanged; protein was 1 mg/mL and incubation time was 60 min.

Compound: CC(C)(CO)C(=O)SCCOP(=O)(NCc1ccccc1)OC[C@H]1O[C@@H](n2cnc3c(=O)[nH]c(N)nc32)[C@](C)(O)[C@@H]1O (mixture of isomers) [Compound 1, 3-hydroxy-2,2-dimethyl-thiopropionic acid S-(2-{[(2R,3R,4R,5R)-5-(2-amino-6-oxo-1,6-dihydro-purin-9-yl)-3,4-dihydroxy-4-methyl-tetrahydro-furan-2-ylmethoxy]-benzylamino-phosphoryloxy}-ethyl) ester]
- % Residual Compound 1 (Ketoconazole 0.1 μM): 68%
- % Residual Compound 1 (Ketoconazole 1 μM): 125%
- % Residual Compound 1 (Ritonavir 0.1 μM): 41%
- % Residual Compound 1 (Ritonavir 1 μM): 122%
- % Residual Compound 1 (inhibitor 0 μM): 25%
